Assay results from ChEMBL document CHEMBL1201862, “PubChem BioAssay data set” (2004).
Active and inactive are the calls of the source. For most assays here, no stated cut-off is given here; in the data, actives have a measured EC50 and inactives only a lower limit.

Assays:
Type in all cases: functional
[1] = test system: H4; experiment: Luminescence Cell-Based Dose Response HTS to Identify Activators of 5'UTR Stem-Loop Driven Prion Protein mRNA Translation in H4 Neuroglioblastoma Cells. [Related pubchem assays: 1829 (Project Summary), 1814 (Primary HTS)]; conditions: Homo sapiens
[2] = Luminescence Cell-Based Dose Response HTS to Identify Activators of Luciferase Translation or Activity in H4 […] Cells. [Related pubchem assays: 1829 (Project Summary), 1814 (Primary HTS)]
[3] = Luminescence Cell-Based Dose Confirmation HTS to Identify Activators of 5'UTR Stem-Loop Driven Alpha-Synuclein mRNA Translation in H4 Neuroglioblastoma Cells. [Related pubchem assays: 1829 (Project Summary), 1814 (Primary HTS)]
[4] = Luminescence Cell-Based Dose Retest to Confirm Inhibitors of Cancer Stem Cells. [Related pubchem assays (depositor defined):AID2717, AID2721]; conditions: Homo sapiens
[5] = target: T1, Rac GTPase-activating protein 1 (Homo sapiens, UniProt Q9H0H5); experiment: MgcRacGAP GTPase-activating activity inhibitors, confirmation, biochemical, ADP Hunter fluorescence, primary and confirmatory (AID 624330)
T1 sequence (Q9H0H5 whole entry): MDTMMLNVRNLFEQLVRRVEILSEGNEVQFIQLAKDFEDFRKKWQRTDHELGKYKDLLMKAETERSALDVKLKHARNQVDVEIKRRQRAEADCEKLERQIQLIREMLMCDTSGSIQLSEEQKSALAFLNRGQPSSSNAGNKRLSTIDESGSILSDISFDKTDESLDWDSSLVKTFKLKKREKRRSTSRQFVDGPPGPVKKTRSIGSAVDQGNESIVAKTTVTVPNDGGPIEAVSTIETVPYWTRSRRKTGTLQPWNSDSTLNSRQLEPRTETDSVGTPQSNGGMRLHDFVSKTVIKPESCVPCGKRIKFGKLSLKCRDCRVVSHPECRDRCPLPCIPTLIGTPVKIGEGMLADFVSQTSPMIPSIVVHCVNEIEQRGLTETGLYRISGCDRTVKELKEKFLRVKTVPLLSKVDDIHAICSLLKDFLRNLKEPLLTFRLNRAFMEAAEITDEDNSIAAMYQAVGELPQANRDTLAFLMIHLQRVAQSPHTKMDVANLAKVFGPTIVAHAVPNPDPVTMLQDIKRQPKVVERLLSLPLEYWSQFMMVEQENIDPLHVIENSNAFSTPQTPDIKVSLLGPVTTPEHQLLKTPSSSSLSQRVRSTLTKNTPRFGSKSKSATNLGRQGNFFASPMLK
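Wherever AC50 is given: cells exposed to compound for roughly 70 hours or longer before luminescence read.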

| SMILES | EC50 [1] | EC50 [2] | EC50 [3] | AC50 [4] | IC50 [5] |
| --- | --- | --- | --- | --- | --- |
| Cc1ccc(-c2cc(C(=O)N3CCCc4ccccc43)no2)cc1 | 11.8 µM (active) | > 120 µM (not active) | 52.4 µM (active) | – | – |
| N=c1n(CCN2CCOCC2)c2ccccc2n1CC(=O)c1ccc(Cl)c(Cl)c1 | 41.8 µM (inconclusive) | > 120 µM (not active) | > 120 µM (not active) | – | – |
| Cc1cc(C)c(C)c(S(=O)(=O)N2CCN(c3ccc(O)cc3)CC2)c1C | – | – | – | 8.83 µM (active) | 85.9 µM (active) |
| Cc1cccc2cc(C#N)c(SCc3nnc(-c4ccccc4[N+](=O)[O-])o3)nc12 | 18.4 µM (active) | 75.4 µM (active) | > 120 µM (not active) | – | – |
| O=C(CN1C(=O)S/C(=C\C=C\c2ccccc2)C1=O)Nc1cccc(O)c1 | 49.2 µM (active) | 40.1 µM (active) | 16.4 µM (active) | – | – |
| COC(=O)C1C(=O)C=C(Nc2ccc(F)cc2F)CC1c1ccccc1 (stereo unspecified) | 17.6 µM (active) | 95.6 µM (active) | > 120 µM (not active) | – | – |
| O=C(c1cc(-c2cccc(Cl)c2)on1)N1CCOCC1 | 21.1 µM (active) | 26.4 µM (active) | 4.22 µM (active) | – | – |
| Cc1ccc(C(C)(C)NC(=O)C2CCC(=O)N(C3CCCCCC3)C2)cc1 (stereo unspecified) | > 120 µM (not active) | 10.2 µM (active) | 83.3 µM (active) | – | – |
| COc1cccc(/C=N/NC(=O)CCn2nnc3ccccc32)c1 | > 120 µM (not active) | > 120 µM (not active) | > 120 µM (not active) | – | – |
